Publication PMC3951423, “Structural Bases of Norovirus RNA Dependent RNA Polymerase Inhibition by Novel Suramin-Related Compounds” (PLoS ONE, 2014)
Values after ≈ are worked out from the molar mass of the structure shown. Values joined by “and” are separate entries in the source; they are usually repeats but may differ in a detail not shown here. Identical values can stand only once. Counter-ions that a name gives are not always drawn.

How the values were obtained:
hNV-RdRp [1] = target: T1, hNV-RdRp (Norovirus GII (human norovirus; Norwalk-like virus), UniProt A0ZNP5); assay: In-vitro RdRp inhibition assay (PicoGreen fluorescence, poly(C)/oligoG12); assay type: biochemical; details: poly(C) template, G12 primer, GTP 100 μM; read-out: IC50 hNVRdRp
Procedure: (§1) hNV and mNV-RdRp inhibition assays were performed monitoring the impairment of RNA synthesis as a function of inhibitor concentration, as previously described. Briefly, RdRp activity was assessed in vitro (measuring PicoGreen fluorescence) following the synthesis of double-stranded RNA from a single-stranded RNA poly(C) template annealed with a G12 primer. The assay can easily be adapted for any viral RNA polymerase.
(§2) RdRp assays were performed as previously described. In brief poly(C) (MP Biomedicals) was used as template annealed with oligoG12 as primer (62.5 nM final concentration) and GTP (100 μM final concentration) as substrate, in a 200 μl reaction mixture containing 20 mM Tris/HCl pH 7.5, 25 mM NaCl, 5 mM MgCl2, 0.3 mM MnCl2, 1 mM DTT, PicoGreen Quantitation Reagent (Molecular Probes) diluted 1/200 20 U ml−1 RiboLock Ribonuclease Inhibitor (Fermentas). Reactions were started by the addition of GTP following the fluorescence of samples in a fluorescence reader (Varian, Cary Eclipse Fluorescence Spectrophotometer).

mNV-RdRp [2] = target: T2, mNV-RdRp (Norovirus, UniProt Q80J95); assay: as above; assay type: biochemical; details: poly(C) template, G12 primer, GTP 100 μM; read-out: IC50 mNVRdRp
T2 construct: Solutions of 4 μl of the NV-RdRp domain (final hNV-RdRp concentration 7 μM, final mNV-RdRp concentration 1.6 μM); made in house
Procedure: as §1, §2

[3] = Water solubility (Bookser's method); assay type: physicochemical; details: thermodynamic from solid, deionized water, saturated solution
Excerpt: (§3) Bookser's method was applied to obtain the water solubility of sodium organosulphonates 3–8 and Suramin (9) by use of HPLC with a UV detector (see Table 1). Furthermore, the “shake–flask method” [28] was applied to obtain their hydrophobicity by use of n-octanol and water. The apparent partition coefficient (P) shown in Table 1 is the ratio of the concentration in n-octanol to the total concentration (i.e., ionized plus non-ionized) of the species in the aqueous phase, [29].
A stock solution was prepared by dissolving a precisely weighed amount of Suramin derivatives in deionized water (1.0 ml). The UV absorption maximum of each compound was measured by dilution of the solution with deionized water as necessary. A saturated solution of each compound was then prepared by use of deionized water (1.0 ml) in the presence of an excess of Suramin derivatives for 1.0 hour. The obtained saturated solution was filtered to remove solid compound through a Millipore filter (0.45 μm) and was scanned by UV spectroscopy at the wavelength of the absorption maximum previously determined.

[4] = n-Octanol/water partition coefficient (shake-flask method); assay type: physicochemical; details: n-octanol / pH 7.4 phosphate buffer, 25 °C, average of three experiments, read-out: hydrophobicity log P
Excerpt: as §3
The n-octanol/water partition coefficient of Suramin derivatives was determined by the shake-flask method. n-Octanol and pH 7.4 phosphate buffer were mutually saturated for 4.0 hours, and the phases were separated. A stock solution of each Suramin derivative was prepared using pH 7.4 phosphate buffer solution. Suramin derivatives were partitioned between n-octanol and pH 7.4 phosphate buffer. Then the phase mixtures were shaken for 1 hour at constant 25 °C. After separation, the absorbance of the phosphate buffer solutions (pH 7.4) was measured by UV spectrophotometry. Three replicates were performed for each compound. The P value corresponded to the quotient between n-octanol and buffer concentrations of the drug. The log P values were an average of three independent experiments.

hNV-RdRp [5] = target: T1, hNV-RdRp; assay: Thermofluorimetric (thermal shift) assay; assay type: binding; details: inhibitor 4 μM, hNV-RdRp 7 μM, Sypro Orange; free enzyme Tm 41.5
Procedure: (§4) In order to exclude that 8 and 6 inhibition might be linked to some form of RdRp destabilization/aggregation/denaturation, a process generally reflected by a variation of the protein melting temperature (Tm), we performed thermofluorimetric assays on free and inhibited NV-RdRps.
(§5) Thermofluorimetric (Thermal shift) assays for the evaluation of the hNV-RdRp melting temperature (Tm) in the absence/presence of the inhibitors, were conducted in a MiniOpticon Real Time PCR Detection System (Bio-Rad), using the fluorescent dye Sypro Orange. Solutions of 4 μl of the NV-RdRp domain (final hNV-RdRp concentration 7 μM, final mNV-RdRp concentration 1.6 μM) were diluted in 9.5 μl of its buffer, and mixed with 3.5 μl of Sypro orange (Sigma) diluted 60×, and 1 μl of 6 or 8 (4 μM final concentration). In control samples the inhibitors were replaced by water. The sample plates were heated from 20 to 90°C with a heating rate of 0.2 °C/min. Fluorescence intensities were measured within excitation/emission ranges of 470–505 nm and 540–700 nm, respectively.

mNV-RdRp [6] = target: T2, mNV-RdRp; assay: Thermofluorimetric (thermal shift) assay; assay type: binding; details: inhibitor 4 μM, mNV-RdRp 1.6 μM, Sypro Orange; free enzyme Tm 39.6 ±0.2
Procedure: as §4, §5

[7] = Solubility in organic solvents (observation during synthesis); assay type: physicochemical; details: most organic solvents, including THF and DMSO
NV-RdRp = tested on: NV-RdRp; design: method as in earlier work; details: ref 34 (Tarantino et al., in press); cited from earlier work
[8] = statement in the Introduction, no reference given; cited from earlier work

Structure (SMILES) | IC50 (hNV-RdRp [1]) | IC50 (mNV-RdRp [2]) | solubility at 1 h [3] | logP at 1 h [4] | hNV-RdRp Tm in the presence of inhibitor (hNV-RdRp [5]) | mNV-RdRp Tm in the presence of inhibitor (mNV-RdRp [6]) | Solubility in organic solvents [7] | inhibitory potency against NV-RdRp (NV-RdRp) | log P [8]
Cc1ccc(C(=O)Nc2ccc(S(=O)(=O)O)c3cccc(S(=O)(=O)O)c23)cc1N [Compound 4, 4-(3-Amino-4-methylbenzamido)naphthalene-1,5-disulphonate Acid Disodium Salt] | 1100 ± 200 nM | 160 ± 7 nM | 339 mg/mL | -2.33 | – | – | – | – | –
Cc1ccc(C(=O)Nc2ccc(S(=O)(=O)O)c3cccc(S(=O)(=O)O)c23)cc1NC(=O)c1cccc(N)c1 [Compound 7, 4-[3-(3-Aminobenzamido)-4-methylbenzamido]naphthalene-1,5-disulphonate Acid Disodium Salt] | 1100 ± 50 nM | 160 ± 6 nM | 249 mg/mL | -2.11 | – | – | very poor | – | –
Cc1nc(N=Nc2cc(S(=O)(=O)O)c3cc([N+](=O)[O-])cc(S(=O)(=O)O)c3c2)c(COP(=O)(O)O)c(C=O)c1O [PPNDS] | – | – | – | – | – | – | – | low nM | –
Cc1ccc(C(=O)Nc2ccc(S(=O)(=O)O)c3cc(S(=O)(=O)O)cc(S(=O)(=O)O)c23)cc1NC(=O)c1cccc(NC(=O)Nc2cccc(C(=O)Nc3cc(C(=O)Nc4ccc(S(=O)(=O)O)c5cc(S(=O)(=O)O)cc(S(=O)(=O)O)c45)ccc3C)c2)c1 [Suramin (9), Suramin] | 27 ± 3 nM | 70 ± 3 nM | 138 mg/mL (≈ 106 mM) | -3.42 | – | – | – | – | lower than 0

The remaining compounds from weak to strong by IC50 (hNV-RdRp [1]), led by results:

IC50 (hNV-RdRp [1]) | IC50 (mNV-RdRp [2]) | solubility at 1 h [3] | logP at 1 h [4] | hNV-RdRp Tm in the presence of inhibitor (hNV-RdRp [5]) | mNV-RdRp Tm in the presence of inhibitor (mNV-RdRp [6]) | Solubility in organic solvents [7] | Structure (SMILES) | inhibitory potency against NV-RdRp (NV-RdRp) | log P [8]
1280 ± 70 nM | 200 ± 10 nM | 260 mg/mL | -2.19 | – | – | – | Cc1ccc(C(=O)Nc2ccc(S(=O)(=O)O)c3cccc(S(=O)(=O)O)c23)cc1[N+](=O)[O-] [Compound 3, 4-(4-Methyl-3-nitrobenzamido)naphthalene-1,5-disulphonate Acid Disodium Salt] | – | –
1000 ± 90 nM | 115 ± 15 nM | 179 mg/mL | -1.64 | 41.2±0.2 °C | 39.4±0.3 °C | – | Cc1ccc(C(=O)Nc2ccc(S(=O)(=O)O)c3cccc(S(=O)(=O)O)c23)cc1NC(=O)c1cccc([N+](=O)[O-])c1 [Compound 6, 4-[4-Methyl-3-(3-nitrobenzamido)benzamido]naphthalene-1,5-disulsulphonate Acid Disodium Salt] | – | –
28 ± 4 nM | ~60 nM and 60 nM | 114 mg/mL | -1.61 | 41.4 °C | 39.8 ±0.2 °C | – | Cc1ccc(C(=O)Nc2ccc(S(=O)(=O)O)c3cccc(S(=O)(=O)O)c23)cc1NC(=O)c1cccc(NC(=O)Nc2cccc(C(=O)Nc3cc(C(=O)Nc4ccc(S(=O)(=O)O)c5cccc(S(=O)(=O)O)c45)ccc3C)c2)c1 [Compound 8, 4-4′-(Carbonylbis[imino-3,1-phenylenecarbonylimino(4-methyl-3,1-phenylene)carbonylimino])bis-1,5-naphthalenedisulphonate Acid Tetrasodium Salt] | – | –
